Reference: PubChem BioAssay (NCI)
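GI50 is the concentration that inhibits growth by half. TGI denotes the concentration required for complete inhibition of growth.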

Tests used:
Assay in all cases: NCI-60 cell line screen, 384-well format
NCI-H322M lung = tested on: NCI-H322M lung
SNB-75 CNS = tested on: SNB-75 CNS
IGROV1 ovarian = tested on: IGROV1 ovarian
PC-3 prostate = tested on: PC-3 prostate
ACHN renal = tested on: ACHN renal
NCI-H522 lung = tested on: NCI-H522 lung
786-0 renal = tested on: 786-0 renal
A549 NSCLC = tested on: A549 NSCLC
HCC-2998 colon = tested on: HCC-2998 colon
NCI-H23 lung = tested on: NCI-H23 lung
MOLT-4 leukemia = tested on: MOLT-4 leukemia
UACC-257 melanoma = tested on: UACC-257 melanoma
SK-OV-3 ovarian = tested on: SK-OV-3 ovarian
TK-10 renal = tested on: TK-10 renal
LOX IMVI melanoma = tested on: LOX IMVI melanoma
SK-MEL-5 melanoma = tested on: SK-MEL-5 melanoma
HOP-62 NSCLC = tested on: HOP-62 NSCLC
SK-MEL-2 melanoma = tested on: SK-MEL-2 melanoma
MALME-3M melanoma = tested on: MALME-3M melanoma
KM12 colon = tested on: KM12 colon
SK-MEL-28 melanoma = tested on: SK-MEL-28 melanoma
BT-549 breast = tested on: BT-549 breast
HT29 colon = tested on: HT29 colon
SW-620 colon = tested on: SW-620 colon
SF-295 CNS = tested on: SF-295 CNS
MDA-MB-468 breast = tested on: MDA-MB-468 breast
CCRF-CEM leukemia = tested on: CCRF-CEM leukemia
MDA-MB-231 breast = tested on: MDA-MB-231 breast
CAKI-1 renal = tested on: CAKI-1 renal
RPMI-8226 leukemia = tested on: RPMI-8226 leukemia
SR leukemia = tested on: SR leukemia
NCI-H226 lung = tested on: NCI-H226 lung
OVCAR-3 ovarian = tested on: OVCAR-3 ovarian
NCI/ADR-RES ovarian = tested on: NCI/ADR-RES ovarian
HCT-15 colon = tested on: HCT-15 colon
SNB-19 CNS = tested on: SNB-19 CNS
K-562 leukemia = tested on: K-562 leukemia
SF-268 CNS = tested on: SF-268 CNS
COLO 205 colon = tested on: COLO 205 colon
HL-60(TB) leukemia = tested on: HL-60(TB) leukemia
T-47D breast = tested on: T-47D breast
A498 renal = tested on: A498 renal
EKVX NSCLC = tested on: EKVX NSCLC
HOP-92 NSCLC = tested on: HOP-92 NSCLC
MCF7 breast = tested on: MCF7 breast
HS 578T breast = tested on: HS 578T breast
RXF 393 renal = tested on: RXF 393 renal
DU-145 prostate = tested on: DU-145 prostate
SF-539 CNS = tested on: SF-539 CNS
HCT-116 colon = tested on: HCT-116 colon
M14 melanoma = tested on: M14 melanoma
UO-31 renal = tested on: UO-31 renal
SN12C renal = tested on: SN12C renal
OVCAR-4 ovarian = tested on: OVCAR-4 ovarian
U251 glioblastoma = tested on: U251 glioblastoma
OVCAR-5 ovarian = tested on: OVCAR-5 ovarian
UACC-62 melanoma = tested on: UACC-62 melanoma

`COc1cc2c(cc1F)C(c1ccccc1Cl)=Nc1c(n[nH]c1C)N2` showed a GI50 (NCI-H322M lung) of 4440 nM, a TGI (NCI-H322M lung) of 19900 nM and a GI50 (SNB-75 CNS) of 320 nM. The TGI (SNB-75 CNS) was 1390 nM, the GI50 (IGROV1 ovarian) was 679 nM and the TGI (IGROV1 ovarian) was 9690 nM. For the same compound, the GI50 (PC-3 prostate) was 709 nM, the TGI (PC-3 prostate) was 21100 nM and the GI50 (ACHN renal) was 1350 nM. It also gave a TGI (ACHN renal) of 13300 nM, a GI50 (NCI-H522 lung) of 202 nM and a TGI (NCI-H522 lung) of 506 nM. For the same compound, the GI50 ([…]-0 renal) was 508 nM, the TGI (786-0 renal) was 11900 nM and the GI50 (A549 NSCLC) was 599 nM. For the same compound, the TGI (A549 NSCLC) was 15600 nM, the GI50 (HCC-2998 colon) was 108 nM and the TGI (HCC-2998 colon) was 16700 nM. For the same compound, the GI50 (NCI-H23 lung) was 690 nM, the TGI (NCI-H23 lung) was 16500 nM and the GI50 (MOLT-4 leukemia) was 146 nM. The TGI (MOLT-4 leukemia) was 283 nM, the GI50 (UACC-257 melanoma) was 11400 nM and the TGI (UACC-257 melanoma) was 23500 nM. It also gave a GI50 (SK-OV-3 ovarian) of 757 nM, a TGI (SK-OV-3 ovarian) of 16400 nM and a GI50 (TK-10 renal) of 860 nM. It also gave a TGI (TK-10 renal) of 10300 nM, a GI50 (LOX IMVI melanoma) of 528 nM and a TGI (LOX IMVI melanoma) of 8780 nM. It also gave a GI50 (SK-MEL-5 melanoma) of 236 nM, a TGI (SK-MEL-5 melanoma) of 12000 nM and a GI50 (HOP-62 NSCLC) of 521 nM. The TGI (HOP-62 NSCLC) was 14100 nM, the GI50 (SK-MEL-2 melanoma) was 459 nM and the TGI (SK-MEL-2 melanoma) was 4310 nM. The GI50 (MALME-3M melanoma) was 12600 nM, the TGI (MALME-3M melanoma) was 25200 nM and the GI50 (KM12 colon) was 274 nM. It also gave a TGI (KM12 colon) of 12100 nM, a GI50 (SK-MEL-28 melanoma) of 778 nM and a TGI (SK-MEL-28 melanoma) of 18600 nM. The GI50 (BT-549 breast) was 231 nM, the TGI (BT-549 breast) was 1080 nM and the GI50 (HT29 colon) was 313 nM. The TGI (HT29 colon) was 12500 nM, the GI50 (SW-620 colon) was 336 nM and the TGI (SW-620 colon) was 11100 nM. For the same compound, the GI50 (SF-295 CNS) was 452 nM, the TGI (SF-295 CNS) was 16200 nM and the GI50 (MDA-MB-468 breast) was 180 nM. For the same compound, the TGI (MDA-MB-468 breast) was 387 nM, the GI50 (CCRF-CEM leukemia) was 145 nM and the TGI (CCRF-CEM leukemia) was 288 nM. For the same compound, the GI50 (MDA-MB-231 breast) was 650 nM, the TGI (MDA-MB-231 breast) was 16800 nM and the GI50 (CAKI-1 renal) was 512 nM. It also gave a TGI (CAKI-1 renal) of 4160 nM, a GI50 (RPMI-8226 leukemia) of 253 nM and a TGI (RPMI-8226 leukemia) of 7320 nM. For the same compound, the GI50 (SR leukemia) was 103 nM, the TGI (SR leukemia) was 238 nM and the GI50 (NCI-H226 lung) was 688 nM. For the same compound, the TGI (NCI-H226 lung) was 2660 nM, the GI50 (OVCAR-3 ovarian) was 225 nM and the TGI (OVCAR-3 ovarian) was 823 nM. For the same compound, the GI50 (NCI/ADR-RES ovarian) was 304 nM, the TGI (NCI/ADR-RES ovarian) was 16000 nM and the GI50 (HCT-15 colon) was 304 nM. For the same compound, the TGI (HCT-15 colon) was 19500 nM, the GI50 (SNB-19 CNS) was 726 nM and the TGI (SNB-19 CNS) was 15100 nM. For the same compound, the GI50 (K-562 leukemia) was 252 nM, the TGI (K-562 leukemia) was 13600 nM and the GI50 (SF-268 CNS) was 370 nM. For the same compound, the TGI (SF-268 CNS) was 1770 nM, the GI50 (COLO 205 colon) was 367 nM and the TGI (COLO 205 colon) was 12100 nM. For the same compound, the GI50 (HL-60(TB) leukemia) was 166 nM, the TGI (HL-60(TB) leukemia) was 306 nM and the GI50 (T-47D breast) was 794 nM. It also gave a TGI (T-47D breast) of 17700 nM, a GI50 (A498 renal) of 498 nM and a TGI (A498 renal) of 17200 nM. It also gave a GI50 (EKVX NSCLC) of 597 nM, a TGI (EKVX NSCLC) of 13800 nM and a GI50 (HOP-92 NSCLC) of 960 nM. The TGI (HOP-92 NSCLC) was 8170 nM, the GI50 (MCF7 breast) was 502 nM and the TGI (MCF7 breast) was 19800 nM. The GI50 (HS 578T breast) was 190 nM, the TGI (HS 578T breast) was 464 nM and the GI50 (RXF 393 renal) was 207 nM. The TGI (RXF 393 renal) was 1230 nM, the GI50 (DU-145 prostate) was 2020 nM and the TGI (DU-145 prostate) was 13000 nM. For the same compound, the GI50 (SF-539 CNS) was 351 nM, the TGI (SF-539 CNS) was 1500 nM and the GI50 (HCT-116 colon) was 393 nM. The TGI (HCT-116 colon) was 15100 nM, the GI50 (M14 melanoma) was 339 nM and the TGI (M14 melanoma) was 15900 nM. The GI50 (UO-31 renal) was 781 nM, the TGI (UO-31 renal) was 2080 nM and the GI50 (SN12C renal) was 632 nM. The TGI (SN12C renal) was 14200 nM, the GI50 (OVCAR-4 ovarian) was 2260 nM and the TGI (OVCAR-4 ovarian) was 19800 nM. It also gave a GI50 (U251 glioblastoma) of 453 nM, a TGI (U251 glioblastoma) of 12300 nM and a GI50 (OVCAR-5 ovarian) of 5320 nM. It also gave a TGI (OVCAR-5 ovarian) of 19800 nM, a GI50 (UACC-62 melanoma) of 334 nM and a TGI (UACC-62 melanoma) of 12000 nM.
